In patent US20250346943A1, “DEGRADER COMPOUNDS OF QSOX1 mRNA” (UNIVERSITY OF FLORIDA RESEARCH FOUNDATION, INCORPORATED, priority 2022, published 2025):

Key:
[1] = target: QSOX1 5′UTR hairpin (model of the QSOX1-a binding site); test: In vitro binding by fluorescence polarization, Cy5-labeled WT RNA; set-up: species or system human
Procedure: In Vitro Binding by Measuring Changes in Fluorescence Polarization. Cy5-labeled RNA was folded by heating at 95° C. for 2 min in 1× Folding Buffer and cooled on ice. Serial dilutions of F1 (200 to 0.4 μM, 1:1 dilutions) were prepared in 1× Folding Buffer with 4% (w/v) bovine serum albumin (BSA) with constant DMSO concentration (2% v/v). The compound solutions (10 μL) were added to a well of non-binding 384-well plate (Corning). An equal volume of folded RNA was adding to each well with a final concentration of 50 nM. The samples were incubated at room temperature for 30 min, and then fluorescence polarization was measured with a Molecular Devices SpectraMax M5 plate reader with an excitation wavelength of 640 nm and an emission wavelength of 680 nm.

[2] = tested on: WT model of the QSOX1-a hairpin structure; test: Optical melting, WT model RNA; format: binding, human
Procedure: (§1) Optical Melting Experiments. The thermal stability of WT and mutant model RNAs in the presence and absence of F1-Amide was measured by optical melting. The RNA ([…]) was prepared in 1× Melting Buffer (8 mM Na2HPO4, pH 7, 10 mM NaCl, and 1 mM EDTA) and heated to 95° C. followed by cooling on ice. F1-Amide was added to the final concentration of 2 mM; an equal volume of DMSO was added to the vehicle sample. The absorbance of the solution at 260 nm was measured by a Beckman Coulter DU800 spectrophotometer as a function of temperature, from 12° C. to 85° C. at a rate of 1° C./min. The background absorbance of buffer with DMSO or compound was subtracted before fitting the curve with MeltWin (v3.5)^7 to determine the melting temperature (Tm) and the Gibbs free energy (ΔG37° C.).

[3] = tested on: mutant RNA (U-bulge mutated to U/A base pair); test: Optical melting, mutant model RNA; format: binding
Procedure: as §1

[4] = tested on: wild type (WT) QSOX1 5′ UTR RNA hairpin; test: In vitro Chem-CLIP and competitive Chem-CLIP with Cy5-labeled WT RNA; format: binding, human; conditions: constant concentration of F1, increasing competitor
Procedure: In Vitro Chemical-Crosslinking and Isolation by Pull-down (Chem-CLIP) with Fluorescently Labeled RNA. Cy5-labeled RNA (100 μL, 2 μM) was folded by heating at 95° C. for 2 min in 1× Folding Buffer and cooled on ice. The RNA was then mixed with F1 at the indicated concentrations. The sample was irradiated with UV light (365 nm) for 15 min and then added to 100 μL of azide-disulfide agarose beads (Click Chemistry Tools, 1238-2) pre-washed with 200 μL of 25 mM HEPES, pH 7.0. A click reaction solution was prepared by mixing 30 μL of 250 mM sodium ascorbate, 30 μL of 10 mM CuSO4, and 30 μL of 50 mM THPTA, which was added to the sample. The sample was incubated while rotating at 37° C. for 2 h, briefly centrifuged, and then the supernatant was decanted. The beads were washed six times with 1× Washing Buffer (10 mM Tris-HCl, pH 7, 4 M NaCl, 1 mM EDTA, and 0.05% (v/v) Tween-20) following by incubation with 1× Releasing Buffer (50 mM TCEP and 100 mM K2CO3) at 37° C. for 30 min. An equivalent of iodoacetamide (200 mM) was added to the sample, which was incubated at 37° C. for an additional 30 min. The sample was briefly centrifuged and supernatant containing RNA was carefully transferred to a clean tube. Cy-5 fluorescence in the supernatant was measured with a Molecular Devices SpectraMax M5 plate reader with an excitation wavelength of 640 nm and an emission wavelength of 680 nm. For competitive Chem-CLIP, F1-RIBOTAC was added to the folded the RNA and incubated at room temperature for 15 min prior to the addition of F1. Pull-down was then completed as described above.

QSOX1-a protein = QSOX1-a protein abundance by Western blotting in MDA-MB-231 cells; format: cell-based, human; conditions: 20 μM
Procedure: (§2) Measuring Protein Abundance by Western Blotting. MDA-MB-231 cells were seeded in 6-well plates at ˜50% confluency and treated with vehicle (DMSO) or compound as described above but without EU treatment. After 16 h, the compound-containing growth medium was removed and replaced with fresh medium containing compound (re-dosing). After an additional 32 h incubation, total protein was harvested (48 h total treatment time). The cells were then washed twice with cold 1×DPBS, and total protein was harvested by using Mammalian Protein Extraction Reagent (M-PER, Thermo Scientific) per the manufacturer's protocol. Protein concentration was quantified by using BCA Protein Assay Kit (Pierce), and the proteins were separated by using 10% SDS-polyacrylamide gel (20 μg protein per lane). After gel electrophoresis in 1× Running Buffer (50 mM MOPS, 50 mM Tris-base, pH 7.5, 1 mM EDTA, and 0.1% (w/v) SDS) at 120 V for 1 h, the proteins were transferred to a PVDF membrane (0.45 μm, Cytiva) at 300 mA for 1 h in 1× Transfer Buffer (25 mM Bicine, 25 mM Tris-base, pH 7.5, 1:4 MeOH:H2O). The membrane was blocked with 5% (w/v) non-fat dry milk in TBST (1×TBS containing 0.1% (v/v) Tween-20) for 1 h at room temperature. The primary antibody for QSOX1 protein (Cat #10092-932, Proteintech) or SQSTM1 protein (Cat #ab 109012, Abcam) was incubated with 1:1000 dilutions at 4° C. for 16 h. The membrane was then washed by TBST four times (5 min each) and then incubated with the secondary antibody (Cat #7074S, Cell Signaling) with 1:5000 dilution at room temperature for 2 h. The membrane was washed with TBST four times (5 min each) and imaged by using a SuperSignal West Pico Chemiluminescent Substrate (Pierce) per manufacturer's protocol. The blot was stripped by washing the membrane in 1× Stripping Buffer (200 mM glycine, pH 2.2, 4 mM SDS, 1% (v/v) Tween 20) at room temperature for 30 min, followed by blocking again as described above. […] Expression levels of proteins were quantified based on band intensity by using ImageJ. […]

SQSTM1 protein = SQSTM1 protein abundance by Western blotting in MDA-MB-231 cells; format: cell-based, human; conditions: F1-Amide 20 μM, F1-RIBOTAC 10 μM, 48 h
Procedure: as §2, with “temperature.” for “temperature. The primary antibody for QSOX1 protein (Cat #10092-932, Proteintech) or SQSTM1 protein (Cat #ab 109012, Abcam) was incubated with 1:1000 dilutions at 4° C. for 16 h. The membrane was then washed by TBST four times (5 min each) and then incubated with the secondary antibody (Cat #7074S, Cell Signaling) with 1:5000 dilution at room temperature for 2 h. The membrane was washed with TBST four times (5 min each) and imaged by using a SuperSignal West Pico Chemiluminescent Substrate (Pierce) per manufacturer's protocol. The blot was stripped by washing the membrane in 1× Stripping Buffer (200 mM glycine, pH 2.2, 4 mM SDS, 1% (v/v) Tween 20) at room temperature for 30 min, followed by blocking again as described above.”

MDA-MB-231 cells [5] = test: Invasion assay; format: cell-based, human; conditions: 48 h
Procedure: Invasion Assay. MDA-MB-231 cells were seeded in […] and treated with compound or transfected by ASO for 48 h as described in Cell Culture. After treatment for 48 h, the medium was replaced with fresh medium that contains same concentration of compound but lacking FBS for 8 h (serum starvation). ThinCert (GBO) 24-well inserts with 8 μm pores were coated with 100 μL of 0.5 mg/mL Matrigel (Fisher Scientific: CB40234) per well, and then cells were added into the insert (50,000 cells per well). Fresh growth medium with FBS was added to a 24-well plate (600 μL each well), and the inserts containing cells were placed on the top, allowing medium to cover the bottom of the insert. After 16 h, all medium was removed, and cells were washed by 1×DPBS twice. Cells were then fixed with 3% (w/v) paraformaldehyde (PFA) in 1×DPBS at room temperature for 30 min, followed by staining with Crystal Violet (10 mg/mL; 4:1H2O:MeOH) at room temperature for 20 min. A cotton swab was used to gently remove non-invasive cells on sitting on top of the Matrigel. The inserts were then imaged under a regular optical microscope (3 views per well), and the number of invasive cells were counted manually.

MDA-MB-231 cells [6] = test: Proliferation assay; format: cell-based, human; conditions: 48 h treatment
Procedure: Proliferation Assay. MDA-MB-231 cells were seeded in 96-well plates (Corning) at ˜40% confluency and treated with compound or transfected with ASO as described in Cell Culture. Compound was replenished every 16 h by replacing all the growth medium with freshly prepared medium containing same concentration of compounds. After 48 h total treatment period, proliferation was measured by using CellTiter 96 AQueous One Solution Cell Proliferation Assay (Cat #G3582, Promega) per manufacturer's protocol.

RNase L = target: T1, RNase L (Homo sapiens, UniProt Q05823); conditions: versus the RNase L recruiting module of F1-RIBOTAC; cited from earlier work
T1 sequence (Q05823 1-741): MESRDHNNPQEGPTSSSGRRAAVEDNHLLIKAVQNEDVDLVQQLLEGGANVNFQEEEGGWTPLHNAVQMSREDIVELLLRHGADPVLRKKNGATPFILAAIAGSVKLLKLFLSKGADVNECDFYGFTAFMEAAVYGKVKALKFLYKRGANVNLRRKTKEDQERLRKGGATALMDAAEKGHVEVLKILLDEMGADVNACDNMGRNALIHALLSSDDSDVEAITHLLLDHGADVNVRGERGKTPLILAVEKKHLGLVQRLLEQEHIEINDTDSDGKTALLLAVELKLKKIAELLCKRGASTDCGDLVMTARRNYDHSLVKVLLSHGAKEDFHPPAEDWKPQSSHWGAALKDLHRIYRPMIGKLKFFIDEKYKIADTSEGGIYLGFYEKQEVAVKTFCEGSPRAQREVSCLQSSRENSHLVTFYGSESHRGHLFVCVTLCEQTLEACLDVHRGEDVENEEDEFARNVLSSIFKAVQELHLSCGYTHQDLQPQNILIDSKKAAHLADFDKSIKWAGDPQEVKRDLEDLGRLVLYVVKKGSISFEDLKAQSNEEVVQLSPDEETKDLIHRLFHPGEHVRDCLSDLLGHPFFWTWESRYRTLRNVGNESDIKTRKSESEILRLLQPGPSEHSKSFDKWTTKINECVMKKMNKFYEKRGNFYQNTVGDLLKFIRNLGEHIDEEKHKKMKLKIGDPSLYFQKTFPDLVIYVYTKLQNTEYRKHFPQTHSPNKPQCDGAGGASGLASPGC

[7] = upon addition of small molecule

| Compound | Kd [1] [µM] | Tm of WT model RNA upon addition of compound ([2]; RNA alone 51.8) [°C] | ΔG37° C. of WT model RNA upon addition of compound ([2]; RNA alone −2.7) [kcal/mol] | decrease of DG°37 [2, 7] [kcal/mol] | increase of melting temperature (Tm) [2, 7] [°C] | effect on Tm or ΔG37° C. of mutant RNA [3] | competition of F1 cross-linking to the QSOX1-a target site (competitive Chem-CLIP) [4] | reduction of QSOX1-a protein (QSOX1-a protein) [%] | effect on SQSTM1 protein levels (SQSTM1 protein) | effect on invasion (MDA-MB-231 cells [5]) | effect on proliferation of MDA-MB-231 cells (MDA-MB-231 cells [6]) | reduction of RNase L recruiting activity (RNase L) [fold] |
| --- | --- | --- | --- | --- | --- | --- | --- | --- | --- | --- | --- | --- |
| CCCNC(=O)CCC(=O)N(C)[C@H]1CC[C@@H](c2ccc(Cl)c(Cl)c2)c2ccccc21 [Compound F1-Amide] | 26 ± 9 | 53.7 | -3.0 | 0.3 | 1.9 | No significant effect | dose-dependently competed off | ~15 | Neither | no significant effect | dose-dependently reduced proliferation | – |
| CCOC(=O)C1=C(Nc2ccccc2)S/C(=C\c2ccc(O)c(OCCOCCOCCOCCNC(=O)CCC(=O)N(C)[C@H]3CC[C@@H](c4ccc(Cl)c(Cl)c4)c4ccccc43)c2)C1=O [Compound F1-CTRL] | 10 ± 3 | – | – | – | – | – | – | ~15 | – | no significant effect | – | > 20 |
